# Assay results taken from ChEMBL document CHEMBL1127765, “16-propyl derivatives of estradiol as inhibitors of 17-hydroxysteroid dehydrogenase type 1” (Bioorg Med Chem Lett, 1994).
# Key:
# [1] = target: T1, 17-beta-hydroxysteroid dehydrogenase type 1 (Homo sapiens, UniProt P14061); test: Compound was tested for the inhibition of 17-beta-hydroxysteroid dehydrogenase type 1(17-beta-HSD type 1)
# T1 sequence (P14061 whole entry): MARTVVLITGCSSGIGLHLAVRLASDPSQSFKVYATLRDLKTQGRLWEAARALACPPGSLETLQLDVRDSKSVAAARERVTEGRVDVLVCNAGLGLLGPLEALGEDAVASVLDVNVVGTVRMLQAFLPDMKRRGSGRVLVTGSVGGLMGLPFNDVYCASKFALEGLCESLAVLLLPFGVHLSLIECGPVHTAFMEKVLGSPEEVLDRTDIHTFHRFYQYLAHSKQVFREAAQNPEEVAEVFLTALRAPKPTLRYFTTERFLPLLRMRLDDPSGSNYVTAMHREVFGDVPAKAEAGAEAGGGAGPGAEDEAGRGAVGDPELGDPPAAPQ
# [2] = target: T2, 17-beta-hydroxysteroid dehydrogenase type 1 (Homo sapiens) (UniProt P14061); test: Compound was tested for the inhibition of 17-beta-hydroxysteroid dehydrogenase type 1(17-beta-HSD type 1) at 1 uM concentration
# T2 sequence (whole entry): T1 sequence (P14061 whole entry)
# [3] = target: T2, 17-beta-hydroxysteroid dehydrogenase type 1 (Homo sapiens); test: Compound was tested for the inhibition of 17-beta-hydroxysteroid dehydrogenase type 1(17-beta-HSD type 1) at 10 uM concentration
IC50 [1] [nM],inhibition [2] [%],inhibition [3] [%],SMILES
420,68,92,C[C@]12CC[C@@H]3c4ccc(O)cc4CC[C@H]3[C@@H]1C[C@@H](CCCI)[C@@H]2O
–,29,69,CCC[C@@H]1C[C@H]2[C@@H]3CCc4cc(O)ccc4[C@H]3CC[C@]2(C)[C@H]1O
4300,49,81,C[C@]12CC[C@@H]3c4ccc(O)cc4CC[C@H]3[C@@H]1C[C@@H](CCCF)[C@@H]2O
–,17,57,C[C@]12CC[C@@H]3c4ccc(O)cc4CC[C@H]3[C@@H]1C[C@@H](CCCO)[C@@H]2O
1000,88,92,C[C@]12CC[C@@H]3c4ccc(O)cc4CC[C@H]3[C@@H]1C[C@@H](CCCCl)[C@@H]2O

# The remaining lines, values behind:
SMILES,IC50 [1] [nM],inhibition [2] [%],inhibition [3] [%]
C=CC[C@@H]1C[C@H]2[C@@H]3CCc4cc(O)ccc4[C@H]3CC[C@]2(C)[C@H]1O,–,26,63
C[C@]12CC[C@@H]3c4ccc(O)cc4CC[C@H]3[C@@H]1C[C@@H](CCCBr)[C@@H]2O,460,70,94
C[C@]12CC[C@@H]3c4ccc(O)cc4CC[C@H]3[C@@H]1C[C@@H](CCCSC#N)[C@@H]2O,1150,82,95
